Data on 1 compound can be found in patent publication US20220249397A1, “Automated Dosing Protocol for Use of Cannabinoids or Other Psychoactive Substances” (Function Better Inc., priority 2021, published 2022).

What all share (type): in vivo, human
The subject of assay [1] is subjects being treated for pain. Kind of assay: Experimental trial, 9-day dosing protocol, subjects treated for pain. On the procedure:
(§1) An experimental trial was conducted on 11 subjects who followed a 9-day dosing protocol for CBD oil. The subjects sought treatment for anxiety, pain, or sleep. On a daily basis, the subjects rated the intensity of their symptoms on a 0-10 numeric scale, with 0 being best and 10 being worst intensity. This scale was constructed similar to the standard ‘Numeric Pain Rating Scale’ often used in clinical practice for pain assessment.
(§2) The trial further enrolled five additional subjects. […] Days 1-3 were a maximum of 5 mg CBD; days 4-6 were a maximum of 10 mg CBD; days 7-9 were a maximum of 20 mg CBD.

The subject of assay [2] is subjects being treated for anxiety. Kind of assay: Experimental trial, 9-day dosing protocol, subjects treated for anxiety. As to the method: as §1, §2
The test system of assay [3] is subjects being treated for either anxiety, sleep, or pain. Put plainly: Experimental trial, all 16 subjects combined (anxiety, sleep or pain), mean daily scores. As to the method: as §1, §2
Another assay deals with user with pain. Put plainly: Example 1: 9 day dose titration protocol by automated text messages, user treating pain. Details: key to pain score: higher = worse pain; 8 = severe, 6 = moderate. On the procedure:
In this example This is an example of an automated text message exchange with a user for a 9 day (consecutive) dose titration protocol is sufficient to achieve a minimum effective dose. In this example, Twilio was the automated text messaging service that was used. The cannabinoid medication kit is three 15 ml bottles of CBD tincture (i.e. CBD mixed into an ethyl alcohol base): bottle #1, bottle #2, and bottle #3. Bottle #1 contains CBD at a concentration of 100 mg in 5 ml volume (20 mg/ml). Bottle #2 contains CBD at a higher concentration (2×) of 200 mg in 5 ml volume (40 mg/ml). Bottle #3 contains CBD at a further higher concentration (3×) of 300 mg in 5 ml volume (60 mg/ml). Because the three bottles have different dose amounts, to facilitate identifying the correct bottle and avoid mistakes, bottle #1 has a blue-colored label, bottle #2 has a yellow-colored label, and bottle #3 has an orange-colored label. The user inputs the product code or batch number. This ensures that the relevant dosing protocol is associated with the correct cannabinoid product.
On day #1, the user reports a pain score of 8, indicating severe pain. Accordingly, the user is instructed to take the first dose of 6.25 mg from the (blue bottle) twice daily, and continue this dose regimen for the next three days. To facilitate correct adherence to the instructions, the user is shown an image of the blue bottle and the correct liquid level marking on the graduated dropper. On day #2, the user reports a pain score of 6, indicating a reduction in pain symptoms to a moderate level.
On day #4, the user reports a pain score of 5, indicating a reduction in pain symptoms. […] The user is shown an image of the yellow bottle and the correct liquid level marking on the graduated dropper. On day #5, the user reports a pain score of 7, indicating a flare-up of the pain symptoms. The user is asked whether there were any external factors that might have caused this flare-up. […] Thus, the user is asked whether to pause the protocol to allow the user to reassess whether this treatment will be beneficial. Here, the user desires to continue CBD treatment.
Accordingly, the user is given reassurance and instructed to continue at the same dose (i.e. 12.5 mg twice daily).
It is now time for the user to increase the dose amount to stabilize the pain at that level. Accordingly, the user is instructed to switch to the orange bottle (60 mg/ml) and take 18.75 mg twice daily. The user is shown an image of the orange bottle and the correct liquid level marking on the graduated dropper. […] Accordingly, the user is instructed to continue the same dosing regimen (i.e. 18.75 mg twice daily). […] Accordingly, the user has reached the personalized minimum effective dose and is instructed to continue the same dosing regimen (i.e. 18.75 mg twice daily) from hereon. At the end of the protocol, the user also receives a summary report that indicates the minimum effective dose, the lowest pain score achieved, the starting and ending benchmarks, and a graph plotting the daily symptom scores.

On to `C=C(C)[C@@H]1CCC(C)=C[C@H]1c1c(O)cc(CCCCC)cc1O` [CBD, cannabidiol], for which the minimum optimal dose in assay [1] (Subject #C1_4, pain) is listed as 10 mg of CBD/day; in assay [2] (Subject #C1_8, anxiety), 20 mg of CBD/day; in assay [2] (Subject #C1_10, anxiety), 10 mg of CBD/day. Moreover, the “pain score after completion of the protocol” value in assay [1] (Subject #C1_4, started with score of 3, 0-10 scale) was 0. The “anxiety score after completion of the protocol” value in assay [2] (Subject #C1_8, started with score of 5, 0-10 scale) was determined as 1; in assay [2] (Subject #C1_10, started with score of 7, 0-10 scale), 2. In assay [3] (days 1-3 max 5 mg, days 4-6 max 10 mg, days 7-9 max 20 mg CBD, FIG. 7), the “mean scores, initial versus end score” value was “mean scores improved”. Also, in assay [3] (days 1-9, FIG. 8), the “mean daily scores, trend line” value was “downward trending line”. Further, the pain score in the assay with user with pain (day #2, CBD tincture 6.25 mg twice daily, day #1 score 8) was found to be 6; with user with pain (day #3, CBD tincture 6.25 mg twice daily) it was 6; with user with pain (day #4, after 6.25 mg twice daily for three days), 5; in the assay on user with pain (day #5, 12.5 mg twice daily, flare-up) it was 7; in the assay on user with pain (day #6, 12.5 mg twice daily), 5; in the assay on user with pain (day #7, after 12.5 mg twice daily) it was 4. In addition, the pain score turned out to be 4 in the assay on user with pain (day #8, 18.75 mg twice daily) and 4 in the assay with user with pain (day #9, 18.75 mg twice daily). In addition, the “personalized minimum effective dose” value in the assay with user with pain (reached on day #9, pain) stood at 18.75 mg twice daily.
